Laboratory results as given in patent publication US6159733A, “Method for photoinactivating malignant cells” (priority 1996, dated 2000).
“Also recorded” adds a separate entry of the source. Like-named read-outs stand apart in the source and are kept apart here.

Assays:
Assay type in all cases: cell-based, murine
[1] = Photosensitivity of pluripotent stem cells, cobblestone area forming cell (CAFC) assay; details: mouse, bone marrow stem cells, 15 nM
Excerpt: (§1) Animals. C57B1/6 (Ly-5.2) and B6SJ-cd45 ^b pep 3^b /BOY J (Ly-5.1), were obtained from The Jackson Laboratories (Bar Harbor, Me.) and were maintained in the animal facility of the New York Blood Center. After gamma-irradiation, the animals were housed in microisolator cages and provided with autoclaved food and autoclaved acidified water (pH=3) ad libitum. Preparation of bone marrow cell suspensions--Ly-5.1 mice were used as the source of donor BM. Mice (8-10 weeks old) were killed and the BM was harvested by flushing the femoral shafts with Hank's balanced salt solution (HBSS), pH 7.4. The cell suspensions were centrifuged, washed once and the cells were finally resuspended in HBSS--10% vol/vol fetal bovine serum (FBS, Gemini Bioproducts Inc., Calabasas, Calif.).
(§2) Photosensitization. Aliquots of a 1.87 mM Pc 4 (kindly provided by Dr. M. E. Kenney) stock solution in dimethyl sulfoxide were kept at -80° C. in autoclaved brown glass vials. Immediately prior to the photosensitization, Pc4 was thawed and diluted in dimethyl formamide to yield a 10 μM working solution. […] Pc 4 was used at 15 nM throughout the experiments.
(§3) BM and cell line samples, were incubated with 15 nM Pc 4 for two hours at 37° C. at cell concentrations of 1.5×10^7 cells/mL. Aliquots of 1.5 mL were transferred to 24-well plates; separate plates were used for each sample.
(§4) In a second set of experiments, the cells were incubated with 15 nM Pc 4 at cell concentrations of 1.5×10^6 cells/mL. Prior to photoirradiation, the samples were centrifuged and the supernatants were aspirated and set aside. The cell concentrations were adjusted to 1.5×10^7 cells/mL by adding back an appropriate volume of the Pc 4 containing aspirates.
(§5) Photoinactivation. The light source used was a filtered xenon short arc lamp (Versa-Light, Model UV-R6G, Medic Lightech, Ltd., Haifa, Israel). It was used to deliver red light (λ 600-700 nm) to the sensitized cells. After a 20 minute warm up period of the instrument, the distance from the light source to the bottom of the 24-well plate was adjusted to obtain a fluence rate of 26.6 mW/cm^2, as measured with a radiometer (Model IL 1350, International Light, Newburyport, Mass.). Samples were placed under the light source and were stirred during the irradiations. Before and after the irradiations, samples were kept in the dark.
(§6) Cobblestone area forming cell assay. FBMD-1 stromal cells (gift from Dr. Ploemacher) were cultured at 33° C. in a humidified 5% CO2 -incubator in DMEM supplemented with 3.5 mM HEPES, 2 mM glutaMax (GibcoBRL), 10^-7 M sodium selenite, 10^-4 M β-mercaptoethanol, 10% vol/vol fetal calf serum (Gemini Bioproducts, Inc.), 5% vol/vol horse serum and 10^-5 M hydrocortisone 21-hemisuccinate (Breems, D. A., et al. Leukemia 8:1095 (1994); Van der Loo, J. C. M., et al. Blood 85:2598 (1995)). Prior to each experiment, FBMD-1 cells were harvested from log-phase cultures and fresh layers were prepared by seeding 1,000 cells into individual wells of 96-well flat bottom plates. These plates had been incubated overnight with 0.2% (wt/vol) gelatin to improve adherence of the stromal layer. The outer wells of the plates were filled with 100 μL 0.1 N NaOH to reduce infection.
(§7) The FBDM-1 layers were overlaid with the bone marrow samples in a limiting dilution setup; the first wells receiving 180,000-300,000 cells (Breems, D. A., et al., supra). Ten dilutions 2-fold apart were used for each sample with 18 replicate wells per dilution. The cells were cultured at 33° C. in a humidified 5% CO2 -incubator. For each sample, the fraction of wells with at least one phase-dark hematopoietic clone of at least five cells (cobblestone area) was determined weekly and cobblestone area forming cell frequencies (CAFC) were calculated using the dedicated Poison statistics program LimDil (kindly provided by Dr. Jan Hendrikx). After counting, 100 μL medium was removed from the wells and replaced with 100 μL fresh medium.
(§8) Statistics. […]

[2] = tested on: pluripotent stem cells; test: as above
Excerpt: as §1, §2, §3, §4, §5, §6, §7, §8

[3] = tested on: ABE-8.1/2 cells; test: Photoinactivation of cell line, colony forming assay; details: for fluence for photoinactivation to below the detection levels: 15 nM
Experimental: (§9) Cell lines and culture conditions. WEHI-3 (murine myelocytic leukemia), L1210 (murine lymphocytic leukemia) and P815 (murine mastocytoma) cells were grown in RPMI 1640 (GibcoBRL, Grand Island, N.Y.) supplemented with 10% FBS. BC3A (murine leukemia) cells were grown in RPMI 1640 supplemented with 10 μM β-mercaptoethanol and 10% FBS; ABE-8.1/2 (murine pre-B lymphoma) cells were grown in DMEM (GibcoBRL)--10 μM β-mercaptoethanol--10% FBS. All cell lines were obtained from the American Type Culture Collection (Rockville, Md.) and were cultured at 37° C. in a humidified 5% CO2 -incubator. Prior to incubation with Pc 4, the cell lines were centrifuged and resuspended in phosphate buffered saline (PBS)--10% FBS, pH 7.4.
as §2, §3, §4, §5
(§10) Cell line samples were plated (in triplicate) in a semi-solid medium which consisted of DMEM--20% vol/vol serum (2/3 horse serum, 1/3 FBS)--3 mM glutamine--60 μM β-mercaptoethanol--0.3% wt/vol agar. The samples were incubated at 37° C. in a humidified 5% CO2 -incubator, and colonies consisting of more than 50 cells were counted after nine days.
(§11) Statistics. All assays were performed in triplicate unless mentioned otherwise. Data are expressed as mean values±standard error of the mean (SEM). Survival data are presented as surviving fractions relative to the surviving fractions of the untreated controls. The significance of the differences between experimental values was assessed by means of the Student's t-test.

[4] = tested on: L1210 cells; test: as above; details: for fluence for photoinactivation to below the detection levels: 15 nM
Experimental: as §9, §2, §3, §4, §5, §10, §11

[5] = tested on: P815 cells; test: as above
Experimental: as §9, §2, §3, §4, §5, §10, §11

[6] = tested on: BC3A cells; test: as above; details: for fluence for photoinactivation to below the detection levels: 15 nM
Experimental: as §9, §2, §3, §4, §5, §10, §11

With CN(C)CCC[Si](C)(C)O[Si]1(O)n2c3c4ccccc4c2N=C2N=C(N=c4c5ccccc5c(n41)=NC1=NC(=N3)c3ccccc31)c1ccccc12 (stereo not drawn) [Pc 4, hydroxysiloxy-dimethylpropyl-N-dimethyl silicon phthalocyanine] the viability at 672 h, 0.015 µM ([1]; 1.5×10^6 cells/mL, 3 J/cm^2, two values, read-out: relative CAFC day 28 frequency) was 1.8%, the viability at 672 h, 0.015 µM ([1]; 1.5×10^7 cells/mL, 18 J/cm^2, two assays (p=0.69, p=0.78), read-out: relative CAFC frequency on day 28) was 91% and the “relative CAFC day 28 frequency” value ([2]; 15 nM, 1.5×10^6 cells/mL, 3 J/cm^2, two values, 40320 min, 0.015 µM) was under 0.014. The “CAFC frequency compared with untreated samples” value ([2]; 15 nM, 1.5×10^7 cells/mL, 6 J/cm^2 (p=0.58)) was “not significantly lower”, the “CAFC frequency compared with untreated samples” value ([2]; 15 nM, 1.5×10^7 cells/mL, 12 J/cm^2 (p=0.40)) was “not significantly lower” and the “CAFC frequency compared with untreated samples” value ([2]; 15 nM, 1.5×10^7 cells/mL, 18 J/cm^2 (p=0.26)) was “not significantly lower”. For the same molecule, the “relative CAFC frequency on day 28” value ([2]; 15 nM, 1.5×10^7 cells/mL, 18 J/cm^2, two assays (p=0.69, p=0.78), 40320 min, 0.015 µM) was 0.92, the “effect on CAFC frequencies / pluripotent stem cells” value ([2]; 15 nM, 1.5×10^7 cells/mL, after irradiation) was “not affected after irradiation; also recorded: not damaged” and the “photoinactivation of the stem cells (CAFC)” value ([2]; 1.5×10^6 cells/mL) was “approximately 2 log10”. The “comparison with MC 540” value ([2]; 1.5×10^7 cells/mL, vs Sieber (1987)) was “compared favorable to MC 540”, the “sensitivity of c-kit^+,Sca-1^+ BM fraction to photoinactivation” value ([2]; relative to other cell types) was “least sensitive” and the “fluence for photoinactivation to below the detection levels” value (“fluence for photoinactivation” for short) ([3]; 1.5×10^6 cells/mL) was 3 J/cm^2. For the same molecule, the “fluence for photoinactivation” value ([3]; 1.5×10^7 cells/mL) was 12 J/cm^2, the “selectivity of photoinactivation towards the cell line” value (from here on “selectivity”) ([3]; 1.5×10^6 cells/mL) was “approximately 5 log10” and the selective photoinactivation ([3]; 1.5×10^7 cells/mL, 18 J/cm^2) was over 6 log10. For the same molecule, the “fluence for photoinactivation” value ([4]; 1.5×10^6 cells/mL) was 6 J/cm^2, the “fluence for photoinactivation” value ([4]; 1.5×10^7 cells/mL) was 18 J/cm^2 and the “selectivity” value ([4]; 1.5×10^6 cells/mL) was under 1 log10. For the same molecule, the selective photoinactivation ([4]; 1.5×10^7 cells/mL, 18 J/cm^2) was over 6 log10, the “fluence for photoinactivation” value ([5]; 15 nM, 1.5×10^6 cells/mL) was 6 J/cm^2 and the “selectivity” value ([5]; 1.5×10^6 cells/mL) was about 3 logs. For the same molecule, the selective photoinactivation ([5]; 1.5×10^7 cells/mL, 18 J/cm^2) was over 3 log10, the viability at 0.015 µM ([5]; Mus musculus, P815, light or radiation study, read-out: surviving fraction) was 0.053 ± 2.6e-06% and the “fluence for photoinactivation” value ([6]; 1.5×10^6 cells/mL) was 6 J/cm^2. For the same molecule, the “fluence for photoinactivation” value ([6]; 1.5×10^7 cells/mL) was 12 J/cm^2, the “selectivity” value ([6]; 1.5×10^6 cells/mL) was “approximately 5 log10” and the selective photoinactivation ([6]; 1.5×10^7 cells/mL, 18 J/cm^2) was over 6 log10.
